Source: ChEMBL document CHEMBL5365543, “Benzamidine Conjugation Converts Expelled Potential Active Agents into Antifungals against Drug-Resistant Fungi” (J Med Chem, 2023)
In brackets after ≈: the same amount, converted by molar mass. Activity calls are given as the source filed them. No cut-off for these calls is given here.

Tests used:
[1] = Cytotoxicity against human HBE cells assessed as inhibition of cell growth measured after 4 hrs by MTT assay; type: toxicity, cell-based
Candida albicans [2] = assay: Antifungal activity against clinical isolate fluconazole-resistant Candida albicans Gu5 infected in BALB/c mouse assessed as reduction in renal neutrophil infiltration at 6 mg/kg, ip administered on day 1 and day 3 post fungal infection measured after 7 days by periodic acid-schiff/hematoxylin and eosin staining based microscopic analysis; type: functional, organism-based; conditions: time 7.0 day
Candida albicans [3] = assay: Antifungal activity against clinical isolate Candida albicans SCUPC2R14MPG2A harbouring UPC2 mutation overexpressing […] Erg11 assessed as inhibition of fungal growth measured after 24 hrs by CLSI based microtiter plate analysis; type: functional
Candida albicans [4] = assay: Antifungal activity against clinical isolate fluconazole-resistant Candida albicans G5 harbouring MRR1 mutation overexpressing MdrL assessed as inhibition of fungal growth measured after 24 hrs by CLSI based microtiter plate analysis; type: functional
[Candida] auris = Antifungal activity against clinical isolate fluconazole-resistant Candida auris CBS12776 assessed as inhibition of fungal growth measured after 24 hrs by CLSI based microtiter plate analysis; type: functional; conditions: Candidozyma auris
Cryptococcus neoformans = assay: Antifungal activity against clinical isolate fluconazole-resistant Cryptococcus neoformans H99 assessed as inhibition of fungal growth measured after 24 hrs by CLSI based microtiter plate analysis; type: functional
[5] = Drug accumulation in wild-type Candida albicans SC5314 at 50 microg/ml incubated for 3 hrs by HPLC analysis; type: ADME; conditions: dose 50 µg/ml
Candida albicans [6] = assay: Induction of drug resistance in wild-type Candida albicans SC5314 assessed as change in MIC at 0.5 times of MIC measured after 30 passages by broth microdilution method; type: functional
Candida albicans [7] = assay: Antifungal activity against fluconazole-resistant clinical isolate Candida albicans Gu5 assessed as decrease in viable count measured after 24 hrs by colony-counting based time-killing kinetics assay; type: functional, organism-based; conditions: dose 2-4 µg/ml
[8] = Selectivity ratio of IC50 for cytotoxicity against human HBE cells to MIC80 for antifungal activity against clinical isolate fluconazole-resistant Candida albicans G5 harbouring MRR1 mutation overexpressing MdrL; type: toxicity, cell-based
[9] = Selectivity ratio of IC50 for cytotoxicity against human HBE cells to MIC80 for antifungal activity against clinical isolate fluconazole-resistant Candida albicans CA632; type: toxicity, cell-based
[10] = Selectivity ratio of IC50 for cytotoxicity against human HBE cells to MIC80 for antifungal activity against clinical isolate fluconazole-resistant Candida auris CBS12776; type: toxicity, cell-based

**Q.** Which results are given for C=C1C(=O)[C@@]2(C)CC[C@@H]3[C@@]1(CC[C@H]1[C@@]3(C)CCC[C@@]1(C)C(=O)OCCCOc1ccc(C(=N)N)cc1)C2?
**A.** IC50 at 4 h [1]: 16.7 µg/mL (≈ 33 µM); Activity (Candida albicans [2]): Active; MIC80 (Candida albicans [3]): 1 µg/mL (≈ 1.97 µM); MIC80 (Candida albicans [4]): 1 µg/mL (≈ 1.97 µM); MIC80 ([Candida] auris): 2 µg/mL (≈ 3.95 µM); MIC80 (Cryptococcus neoformans): 2 µg/mL (≈ 3.95 µM); Drug uptake [5]: Active; Activity (Candida albicans [6]): Active; Activity (Candida albicans [7]): Dose-Dependent Effect; selectivity ratio [8]: 8; selectivity ratio [9]: 8; selectivity ratio [10]: 8
